From US11149037B2, “Pyrazole MAGL inhibitors” (H. Lundbeck A/S, priority 2017, dated 2021)

Tests used:
[1] = molecular target: T1, MAGL (Mus musculus (Mouse), UniProt O35678); experiment: Mouse brain proteomes from inhibitor treated mice (oral gavage, sacrificed 4 h after administration); format: in vivo; conditions: 5 mg/kg oral gavage
Method: (§1) Preparation of Mouse Brain Proteomes from Inhibitor Treated Mice.
(§2) Inhibitors were administered to wild-type C57B1/6J by oral gavage in a vehicle of polyethylene glycol. Each animal was sacrificed 4 h following administration and brain proteomes were prepared and analyzed according to previously established methods (See Niphakis, M. J., et al. (2011) ACS Chem. Neurosci. and Long, J. Z., et al. Nat. Chem. Biol. 5:37-44).

[2] = molecular target: T2, FAAH (Mus musculus (Mouse), UniProt O08914); experiment: as above; format: in vivo; conditions: 5 mg/kg oral gavage
T2 sequence (O08914 whole entry): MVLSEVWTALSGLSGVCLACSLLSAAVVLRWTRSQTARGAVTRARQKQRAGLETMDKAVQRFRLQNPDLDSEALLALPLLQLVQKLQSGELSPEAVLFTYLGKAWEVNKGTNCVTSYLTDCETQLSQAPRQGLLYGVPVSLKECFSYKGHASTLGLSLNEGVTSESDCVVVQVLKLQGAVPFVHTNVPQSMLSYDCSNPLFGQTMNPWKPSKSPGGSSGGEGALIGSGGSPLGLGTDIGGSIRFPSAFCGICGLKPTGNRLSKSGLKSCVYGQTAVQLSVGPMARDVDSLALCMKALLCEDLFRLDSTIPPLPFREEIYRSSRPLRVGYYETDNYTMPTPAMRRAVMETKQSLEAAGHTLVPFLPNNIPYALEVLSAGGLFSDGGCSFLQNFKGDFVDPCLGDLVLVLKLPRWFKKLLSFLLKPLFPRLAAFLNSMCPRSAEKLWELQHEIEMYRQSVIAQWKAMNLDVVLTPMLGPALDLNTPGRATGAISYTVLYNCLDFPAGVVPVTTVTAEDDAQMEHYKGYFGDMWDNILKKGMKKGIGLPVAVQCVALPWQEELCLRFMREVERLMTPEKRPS
Method: as §1, §2

[3] = molecular target: FAAH (Homo sapiens (Human), UniProt O00519); experiment: In vitro competitive activity-based protein profiling, human proteomes (prefrontal cortex or PC3 cell membrane fractions); format: biochemical; conditions: human proteome; for inhibition at 1 µM: read-out: FAAH % inh. 1 μM (human)
FAAH (Homo sapiens (Human), UniProt O00519), sequence (O00519 whole entry): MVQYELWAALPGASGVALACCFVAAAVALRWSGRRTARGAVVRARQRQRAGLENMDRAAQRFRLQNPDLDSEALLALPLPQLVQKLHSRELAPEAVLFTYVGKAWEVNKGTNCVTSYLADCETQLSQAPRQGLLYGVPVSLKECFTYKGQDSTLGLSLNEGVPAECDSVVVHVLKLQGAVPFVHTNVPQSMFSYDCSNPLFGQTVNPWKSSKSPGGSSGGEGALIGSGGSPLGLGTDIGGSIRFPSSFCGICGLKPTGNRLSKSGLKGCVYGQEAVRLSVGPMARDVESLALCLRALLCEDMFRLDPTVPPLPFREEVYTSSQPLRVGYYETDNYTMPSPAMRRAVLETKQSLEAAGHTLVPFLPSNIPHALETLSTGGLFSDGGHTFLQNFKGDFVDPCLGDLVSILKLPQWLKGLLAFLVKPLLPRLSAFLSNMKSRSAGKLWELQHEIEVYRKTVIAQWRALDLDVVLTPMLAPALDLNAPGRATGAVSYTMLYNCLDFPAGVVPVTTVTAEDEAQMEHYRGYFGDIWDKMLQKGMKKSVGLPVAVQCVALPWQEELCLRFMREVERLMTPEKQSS
How it was run: (§3)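 Activity of MAGL and FAAH was quantified from fluorescent gel band intensities. Beforehand, inhibitors at several concentrations competed against subsequent probe labelling (FP-Rh, JW912 or HT-01) in species-matched proteomes, each step 30 min at 37° C.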

[4] = molecular target: MAGL (Homo sapiens (Human), UniProt Q99685); experiment: as above; format: biochemical; conditions: human proteome; for inhibition at 1 µM: read-out: MAGL % inh. 1 μM (human)
MAGL (Homo sapiens (Human), UniProt Q99685), sequence (Q99685 whole entry): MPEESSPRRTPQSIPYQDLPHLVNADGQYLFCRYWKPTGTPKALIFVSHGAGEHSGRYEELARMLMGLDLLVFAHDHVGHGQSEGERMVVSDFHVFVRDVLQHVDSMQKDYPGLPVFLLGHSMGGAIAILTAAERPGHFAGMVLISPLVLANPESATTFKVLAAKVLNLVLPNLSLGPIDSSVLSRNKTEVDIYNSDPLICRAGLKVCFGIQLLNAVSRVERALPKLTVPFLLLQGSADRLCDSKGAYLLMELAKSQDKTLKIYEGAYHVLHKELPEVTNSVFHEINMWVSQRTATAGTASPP
How it was run: as §3

[5] = molecular target: T1, MAGL; experiment: In vitro competitive activity-based protein profiling, mouse proteomes (brain membrane fraction or cell lysates); format: biochemical; conditions: mouse proteome; for inhibition at 1 µM: read-out: MAGL % inh. 1 μM (mouse)
How it was run: as §3

[6] = molecular target: T2, FAAH; experiment: as above; format: biochemical; conditions: mouse proteome; for inhibition at 1 µM: read-out: FAAH % inh. 1 μM (mouse)
How it was run: as §3

T1 sequence (O35678 whole entry): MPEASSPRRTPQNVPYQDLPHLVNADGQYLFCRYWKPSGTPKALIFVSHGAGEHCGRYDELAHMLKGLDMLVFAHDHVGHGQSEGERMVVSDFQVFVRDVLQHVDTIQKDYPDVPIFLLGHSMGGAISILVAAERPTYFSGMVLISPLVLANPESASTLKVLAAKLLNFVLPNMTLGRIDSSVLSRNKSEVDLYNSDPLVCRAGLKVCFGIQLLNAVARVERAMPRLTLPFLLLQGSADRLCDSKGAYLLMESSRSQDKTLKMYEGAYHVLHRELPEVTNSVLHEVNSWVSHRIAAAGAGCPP

| SMILES | MAGL % inh. 5 mg/kg (mouse) [1] | FAAH % inh. 5 mg/kg (mouse) [2] | inhibition at 1 µM ([3]; 1 μM) | inhibition at 1 µM ([4]; 1 μM) | inhibition at 1 µM [5] | inhibition at 1 µM [6] | IC50 [3] | IC50 [4] | FAAH % inh. 1 μM (human) ([3]; 1 μM) | MAGL % inh. 1 μM (human) ([4]; 1 μM) | MAGL % inh. 1 μM (mouse) [5] | FAAH % inh. 1 μM (mouse) [6] |
| --- | --- | --- | --- | --- | --- | --- | --- | --- | --- | --- | --- | --- |
| CS(=O)(=O)Nc1ccn(C(=O)N2CCC3(CCN(Cc4ccc(C(F)(F)F)cc4N4CCCC4)C3)CC2)n1 [Example 58, N-(1-(2-(2-(Pyrrolidin-1-yl)-4-(trifluoromethyl)benzyl)-2,8-diazaspiro[4.5]decane-8-carbonyl)-1H-pyrazol-3-yl)methanesulfonamide] | A (% inhibition is greater than or equal to 75%) | D (% inhibition is greater than or equal to 0% and less than 25%) | 0 to 25% | > 75% | > 75% | 0 to 25% | – | – | – | – | – | – |
| CS(=O)(=O)Nc1ccn(C(=O)N2CCC3(CCN(Cc4ccc(Cl)cc4N4CCCC4)C3)CC2)n1 [Example 63, N-(1-(2-(4-Chloro-2-(pyrrolidin-1-yl)benzyl)-2,8-diazaspiro[4.5]decane-8-carbonyl)-1H-pyrazol-3-yl)methanesulfonamide] | C (% inhibition is greater than or equal to 25% and less than 50%) | D (% inhibition is greater than or equal to 0% and less than 25%) | 0 to 25% | > 75% | > 75% | 0 to 25% | 1 to 10 µM | < 0.1 µM | – | – | – | – |
| CS(=O)(=O)Nc1ccn(C(=O)N2CCN(Cc3ccc(C(F)(F)F)nc3N3CCCC3)CC2)n1 [Example 71, N-(1-(4-((2-(Pyrrolidin-1-yl)-6-(trifluoromethyl)pyridin-3-yl)methyl)piperazine-1-carbonyl)-1H-pyrazol-3-yl)methanesulfonamide] | A (% inhibition is greater than or equal to 75%) | D (% inhibition is greater than or equal to 0% and less than 25%) | 0 to 25% | > 75% | > 75% | 0 to 25% | – | – | – | – | – | – |
| CN(Cc1ccc(C(F)(F)F)cc1N1CCCC1)C1(C)CCN(C(=O)n2ccc(NS(C)(=O)=O)n2)CC1 [Example 75, N-(1-(4-Methyl-4-(methyl(2-(pyrrolidin-1-yl)-4-(trifluoromethyl)benzyl)amino)piperidine-1-carbonyl)-1H-pyrazol-3-yl)methanesulfonamide] | A (% inhibition is greater than or equal to 75%) | D (% inhibition is greater than or equal to 0% and less than 25%) | 0 to 25% | > 75% | > 75% | 0 to 25% | – | – | – | – | – | – |
| CC(=O)Nc1ccn(C(=O)N2CCN(Cc3ccc(C(F)(F)F)cc3NCCCC(=O)O)CC2)n1 [Example 76, 4-((2-((4-(3-Acetamido-1H-pyrazole-1-carbonyl)piperazin-1-yl)methyl)-5-(trifluoromethyl)phenyl)amino)butanoic acid] | D (% inhibition is greater than or equal to 0% and less than 25%) | D (% inhibition is greater than or equal to 0% and less than 25%) | 0 to 25% | > 75% | > 75% | 0 to 25% | – | – | – | – | – | – |
| CC(=O)Nc1ccn(C(=O)N2CCC3(CCCN3Cc3ccc(C(F)(F)F)cc3NCCCC(=O)O)CC2)n1 [Example 79, 4-((2-((8-(3-Acetamido-1H-pyrazole-1-carbonyl)-1,8-diazaspiro[4.5]decan-1-yl)methyl)-5-(trifluoromethyl)phenyl)amino)butanoic acid] | D (% inhibition is greater than or equal to 0% and less than 25%) | D (% inhibition is greater than or equal to 0% and less than 25%) | 0 to 25% | > 75% | > 75% | 0 to 25% | – | – | – | – | – | – |
| CS(=O)(=O)Nc1ccn(C(=O)N2CCC(Oc3ccc(C(F)(F)F)cc3N3CCCC3)CC2)n1 [Example 80, N-(1-(4-(2-(Pyrrolidin-1-yl)-4-(trifluoromethyl)phenoxy)piperidine-1-carbonyl)-1H-pyrazol-3-yl)methanesulfonamide] | A (% inhibition is greater than or equal to 75%) | D (% inhibition is greater than or equal to 0% and less than 25%) | 0 to 25% | > 75% | > 75% | 0 to 25% | – | – | – | – | – | – |
| CC(=O)Nc1ccn(C(=O)N2CCC3(CCCN3C(=O)c3ccc(C#N)c(C4CC4)c3)CC2)n1 [Example 87, N-(1-(1-(4-Cyano-3-cyclopropylbenzoyl)-1,8-diazaspiro[4.5]decane-8-carbonyl)-1H-pyrazol-3-yl)acetamide] | D (% inhibition is greater than or equal to 0% and less than 25%) | D (% inhibition is greater than or equal to 0% and less than 25%) | 0 to 25% | > 75% | > 75% | 0 to 25% | – | – | – | – | – | – |
| CS(=O)(=O)Nc1ccn(C(=O)N2CCN(Cc3ccc(Cl)nc3N3CCCC3)CC2)n1 [Example 90, N-(1-(4-((6-Chloro-2-(pyrrolidin-1-yl)pyridin-3-yl)methyl)piperazine-1-carbonyl)-1H-pyrazol-3-yl)methanesulfonamide] | C (% inhibition is greater than or equal to 25% and less than 50%) | D (% inhibition is greater than or equal to 0% and less than 25%) | 0 to 25% | > 75% | > 75% | 0 to 25% | – | – | – | – | – | – |
| CS(=O)(=O)Nc1ccn(C(=O)N2C[C@H]3C[C@@H](N(CC(=O)O)Cc4cc(Cl)ccc4C(F)(F)F)C[C@H]3C2)n1 [Example 93, N-(5-Chloro-2-(trifluoromethyl)benzyl)-N-((3aR,5r,6aS)-2-(3-(methylsulfonamido)-1H-pyrazole-1-carbonyl)octahydrocyclopenta[c]pyrrol-5-yl)glycine] | D (% inhibition is greater than or equal to 0% and less than 25%) | D (% inhibition is greater than or equal to 0% and less than 25%) | – | – | – | – | – | – | D (% inhibition is greater than or equal to 0% and less than 25%) | A (% inhibition is greater than or equal to 75%) | A (% inhibition is greater than or equal to 75%) | D (% inhibition is greater than or equal to 0% and less than 25%) |
| CN(Cc1ccc(C(F)(F)F)cc1N1CCOCC1)C1(C)CCN(C(=O)n2ccc(NS(C)(=O)=O)n2)CC1 [Example 94, N-(1-(4-Methyl-4-(methyl(2-morpholino-4-(trifluoromethyl)benzyl)amino)piperidine-1-carbonyl)-1H-pyrazol-3-yl)methanesulfonamide] | A (% inhibition is greater than or equal to 75%) | D (% inhibition is greater than or equal to 0% and less than 25%) | 0 to 25% | > 75% | > 75% | 0 to 25% | – | – | – | – | – | – |
| CS(=O)(=O)Nc1ccn(C(=O)N2CCC(Oc3ccc(C(F)(F)F)cc3-c3nnco3)CC2)n1 [Example 96, N-(1-(4-(2-(1,3,4-Oxadiazol-2-yl)-4-(trifluoromethyl)phenoxy)piperidine-1-carbonyl)-1H-pyrazol-3-yl)methanesulfonamide] | D (% inhibition is greater than or equal to 0% and less than 25%) | D (% inhibition is greater than or equal to 0% and less than 25%) | 0 to 25% | > 75% | > 75% | 0 to 25% | – | – | – | – | – | – |
| CS(=O)(=O)Nc1ccn(C(=O)N2CCC(Oc3ccc(C(F)(F)F)cc3-n3cccn3)CC2)n1 [Example 98, N-(1-(4-(2-(1H-Pyrazol-1-yl)-4-(trifluoromethyl)phenoxy)piperidine-1-carbonyl)-1H-pyrazol-3-yl)methanesulfonamide] | D (% inhibition is greater than or equal to 0% and less than 25%) | D (% inhibition is greater than or equal to 0% and less than 25%) | 0 to 25% | > 75% | > 75% | 0 to 25% | – | – | – | – | – | – |
| CC(=O)N(Cc1ccc(C(F)(F)F)cc1N1CCCC1)C1(C)CCN(C(=O)n2ccc(NS(C)(=O)=O)n2)CC1 [Example 103, N-(4-Methyl-1-(3-(methylsulfonamido)-1H-pyrazole-1-carbonyl)piperidin-4-yl)-N-(2-(pyrrolidin-1-yl)-4-(trifluoromethyl)benzyl)acetamide] | D (% inhibition is greater than or equal to 0% and less than 25%) | D (% inhibition is greater than or equal to 0% and less than 25%) | 0 to 25% | > 75% | > 75% | 0 to 25% | – | – | – | – | – | – |
